These results are taken from patent US20050277612A1, “Methods, compositions and compound assays for inhibiting amyloid-beta protein production” (priority 2004, published 2005).

Test [1] deals with amyloid beta 1-42 levels in the conditioned medium of SH-SY5Y cells. As to the kind of experiment: Amyloid beta 1-42 ELISA after adenoviral knock down of SPHK2. Type of test: cell-based. The note with it: SH-SY5Y cells co-infected with adenoviruses expressing APPwt and the KD sequence, compared to GL2 KD virus infected cells. The method, then:
Cells seeded in collagen-coated plates at a cell density of 15000 cells/well (384 well plate) in DMEM (10% FBS), are infected 24 h later with 1 μl or 0.2 μl of adenovirus (corresponding to an average multiplicity of infection (MOI) of 120 and 24 respectively). The following day, the virus is washed away and DMEM (25 mM Hepes; […]) is added to the cells. Amyloid-beta peptides are allowed to accumulate during 24 h. The ELISA plate is prepared by coating with a capture antibody (JRF/cAbeta42/26) (obtained from M Mercken, Johnson and Johnson Pharmaceutical Research and Development, B-2340 Beerse, Belgium) overnight in buffer 42 (Table 2) at a concentration of 2.5 μg/ml. The excess capture antibody is washed away the next morning with PBS and the ELISA plate is then blocked overnight with casein buffer (see Table 2) at 4° C. […] Following the removal of excess detection antibody by a wash with PBS-Tween20 and PBS, HRP activity is detected via addition of luminol substrate (Roche), which is converted into a chemiluminescent signal by the HRP enzyme. […]
(§1) Adenoviral knock down constructs are used to transduce mouse, rat or human primary neuronal cells and/or cell lines (e.g. HEK293, SH-SY5Y, IMR-32, SK-N—SH, SK-N-MC, H4, CHO, COS, HeLa) stably over-expressing APPwt or not. […] In addition, RNA is isolated from these infected cells and SPHK2 RNA levels are determined via real time PCR. […]
In general terms: An ELISA detects its analyte on a solid surface through an enzyme-linked reagent.

A further test relates to SPHK2 RNA. As to the kind of experiment: SPHK2 RNA levels via real time PCR in KD virus infected cells. The format is cell-based, Homo Sapiens. The note with it: infected SH-SY5Y cells, normalized to household keeping genes (GAPDH).
From the text: Upon identification of protein kinase involved of APP processing, it is essential to evaluate whether the kinase is expressed in the tissue and cells of interest. This can be achieved by measuring RNA and/or protein levels. In recent years, RNA levels are being quantified through real time PCR technologies, whereby the RNA is first transcribed to cDNA and then the amplification of the cDNA of interest is monitored during a PCR reaction. The amplification plot and the resulting Ct value are indicators for the amount of RNA present in the sample. To assess whether SPHK cDNA is expressed in the human brain, real time PCR with GAPDH specific primers and specific primers for polynucleotides coding for the SPHK polypeptide (Table 3) is performed on human total brain, human cerebral cortex, and human hippocampal total RNA (BD Biosciences). GAPDH RNA is detected with a Taqman probe, while for the polynucleotides of the invention SybrGreen is used. 40 ng of RNA is transcribed to DNA using the MultiScribe Reverse Transcriptase (50 U/μl) enzyme (Applied BioSystems). […]
as §1
On the technique in general: Real-time PCR tracks product formation cycle by cycle.

Consider ACTTCTGCATCTACACCTACC [SEQ ID NO: 6], for which the “amyloid beta 1-42 levels in the conditioned medium” value in test [1] is reported as “reduction”. The “SPHK2 RNA levels” value in the test with SPHK2 RNA is on record as “reduced”.
